Consider 15 compounds from patent publication US11702422B2, “Imidazopyridazines as modulators of IL-17” (Janssen Pharmaceutica NV, priority 2020, dated 2023).

In one experiment the test system is patients with PsA. As to conditions: PsA with inadequate response to conventional synthetic disease-modifying antirheumatic drug; cited from earlier work.
The subject of a further experiment is patients with active PsA. As to conditions: compared with anti-TNFα antibodies; cited from earlier work.
The subject of experiment [1] is patients with moderate-to-severe HS. As to conditions: seven of nine patients, open-label pilot-trial; cited from earlier work.
Experiment [2] has as its system SCIDhu model of human myeloma. The conditions noted are these: weekly for 4 weeks after first detection of tumor, compared to isotype control mice; cited from earlier work.
The subject of experiment [3] is IL-17A-induced G-CSF production in human normal keratinocyte (NHK). The experiment can be described thus: NHK Assay: IL-17A-induced G-CSF production in human normal keratinocytes. The format is cell-based. The conditions noted are these: 24 h, adult normal human keratinocytes, IL-17A 5 ng/mL, simple average if tested more than once. In outline: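 HTRF read-out of supernatant G-CSF, quantified from a standard curve, gave IC50 values. Adult keratinocytes, 3000-4000 cells/well, received human IL-17A (5 ng/mL final) pre-mixed 1 h at rt with compound, in 5% FBS and 0.2% DMSO, 24 h at 37° C.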

The target of experiment [4] is IL-17A(FLAG-Tagged): IL-17RA(His-Tagged) (Homo sapiens, UniProt Q16552, K93Q). The experiment is described as follows: IL-17A(FLAG-Tagged): IL-17RA(His-Tagged) Binding Disruption Eu-HTRF Assay. The conditions noted are these: IL-17A/IL-17RA binding disruption, simple average if tested more than once. In outline:
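IC50 comes from a one-site competition fit of the HTRF 665/620 nm ratio. Compound dilutions (2-fold, 22 points) were held 1 h rt with FLAG-tagged IL-17A dimer, then His-tagged IL-17RA plus Eu-cryptate anti-FLAG and D2 anti-His antibodies were added for 2 h rt.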

Sequence of UniProt Q16552 (Q16552 with tags, fused parts or gaps K93Q): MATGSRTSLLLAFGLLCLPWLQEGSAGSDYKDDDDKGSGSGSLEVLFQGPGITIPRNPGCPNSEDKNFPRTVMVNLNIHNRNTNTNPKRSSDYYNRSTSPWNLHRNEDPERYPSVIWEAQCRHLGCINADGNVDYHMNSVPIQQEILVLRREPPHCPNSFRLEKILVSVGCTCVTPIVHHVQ

On to ixekizumab, for which, in the experiment with patients with PsA, the “simultaneous improvement of joint and skin disease (ACR50 and PASI100)” value is on record as “superior to adalimumab”.

Turning to secukinumab, the “ACR 20/50/70 response rates” value in the experiment with patients with active PsA is “higher ACR 20/50/70 response rates”. Also, the “patients achieving HiSCR” value in experiment [1] is listed as 78%. Moreover, in experiment [2], the bone damage result is given as “reduced bone damage” and the tumor growth result is “significant inhibition of tumor growth”.

Broadly, the IC50 is the concentration that gives 50% inhibition. On to `O=C(CCC(F)(F)F)N[C@@H](c1cnn2cc([C@@H](NC(=O)c3nonc3OCCF)C3CCC(F)(F)CC3)nc2c1)C1CC1` [Example 384, N—((S)-(7-((R)-Cyclopropyl(4,4,4-trifluorobutanamido)methyl)imidazo[1,2-b]pyridazin-2-yl)(4,4-difluorocyclohexyl)methyl)-4-(2-fluoroethoxy)-1,2,5-oxadiazole-3-carboxamide], for which the half-maximal inhibitory concentration (IC50) in experiment [3] (Homo sapiens, Keratinocyte) was determined as 0.031 µM; in experiment [4], 0.066 µM.

As for `O=C(CCC(F)(F)F)N[C@@H](c1cnn2cc([C@@H](NC(=O)c3cc(C(F)F)ncn3)C3CCC(F)(F)CC3)nc2c1)C1CC1` [Example 199, N—((S)-(7-((R)-Cyclopropyl(4,4,4-trifluorobutanamido)methyl)imidazo[1,2-b]pyridazin-2-yl)(4,4-difluorocyclohexyl)methyl)-6-(difluoromethyl)pyrimidine-4-carboxamide], the IC50 stood at 2 µM in experiment [3] (Homo sapiens, Keratinocyte) and 0.23 µM in experiment [4].

Turning to `O=C(CC1(C(F)(F)F)CC1)N[C@@H](c1cnn2cc([C@@H](NC(=O)c3nonc3C3CC3)C3CCC(F)(F)CC3)nc2c1)C1CC1` [Example 297, 4-Cyclopropyl-N—((S)-(7-((R)-cyclopropyl(2-(1-(trifluoromethyl)cyclopropyl)acetamido)methyl)imidazo[1,2-b]pyridazin-2-yl)(4,4-difluorocyclohexyl)methyl)-1,2,5-oxadiazole-3-carboxamide], the IC50 in experiment [3] (Homo sapiens, Keratinocyte) amounted to 0.087 µM; in experiment [4], 0.031 µM.

As to `Cc1nonc1C(=O)N[C@H](c1cn2ncc([C@H](NC(=O)C(C)CC(F)(F)F)C3CC3)cc2n1)C1CCC(F)(F)CC1` (single isomer, unassigned) [Example 346, N—((S)-(7-((R)-Cyclopropyl((R*)-4,4,4-trifluoro-2-methylbutanamido)methyl)imidazo[1,2-b]pyridazin-2-yl)(4,4-difluorocyclohexyl)methyl)-4-methyl-1,2,5-oxadiazole-3-carboxamide], the IC50 turned out to be 0.44 µM in experiment [3] and 0.15 µM in experiment [4].

On to `N#Cc1cccc(C(=O)N[C@H](c2cn3ncc([C@H](NC(=O)CCC(F)(F)F)C4CC4)cc3n2)C2CCC(F)(F)CC2)c1` [Example 188, 3-Cyano-N—((S)-(7-((R)-cyclopropyl(4,4,4-trifluorobutanamido)methyl)imidazo[1,2-b]pyridazin-2-yl)(4,4-difluorocyclohexyl)methyl)benzamide], for which the half-maximal inhibitory concentration (IC50) in experiment [3] (Homo sapiens, Keratinocyte) turned out to be 0.75 µM; in experiment [4], 0.15 µM.

`CC(C)n1nccc1C(=O)N[C@H](c1cn2ncc(C(NC(=O)CC(C)(C)O)C3CC3)cc2n1)C1CCC(F)(F)CC1` (single isomer, unassigned) [Example 137, N—((S)-(7-((S*)-Cyclopropyl(3-hydroxy-3-methylbutanamido)methyl)imidazo[1,2-b]pyridazin-2-yl)(4,4-difluorocyclohexyl)methyl)-1-isopropyl-1H-pyrazole-5-carboxamide]: the half-inhibitory concentration (IC50) in experiment [3] is greater than 20 µM; in experiment [4], 14 µM.

Regarding `Cc1nonc1C(=O)N[C@H](c1cn2ncc(C(NC(=O)CCC(F)(F)F)C3CCC3)cc2n1)C1CCC(F)(F)CC1` (single isomer, unassigned) [Example 491, N—((S)-(7-((R*)-Cyclobutyl(4,4,4-trifluorobutanamido)methyl)imidazo[1,2-b]pyridazin-2-yl)(4,4-difluorocyclohexyl)methyl)-4-methyl-1,2,5-oxadiazole-3-carboxamide], the half-inhibitory concentration (IC50) was 0.085 µM in experiment [3] (Homo sapiens, Keratinocyte) and 0.039 µM in experiment [4].

In the case of `O=C(CCC(F)(F)F)N[C@@H](c1cnn2cc([C@@H](NC(=O)c3cnn(CCOC(F)(F)F)c3)C3CCC(F)(F)CC3)nc2c1)C1CC1` [Example 36, N—((S)-(7-((R)-Cyclopropyl(4,4,4-trifluorobutanamido)methyl)imidazo[1,2-b]pyridazin-2-yl)(4,4-difluorocyclohexyl)methyl)-1-(2-(trifluoromethoxy)ethyl)-1H-pyrazole-4-carboxamide], the IC50 turned out to be 0.12 µM in experiment [3] (Homo sapiens, Keratinocyte) and 0.14 µM in experiment [4].

For the compound `CC(C)Oc1cc(C(=O)N[C@H](c2cn3ncc([C@H](NC(=O)CCC(F)(F)F)C4CC4)cc3n2)C2CCC(F)(F)CC2)ccn1` [Example 175, N—((S)-(7-((R)-Cyclopropyl(4,4,4-trifluorobutanamido)methyl)imidazo[1,2-b]pyridazin-2-yl)(4,4-difluorocyclohexyl)methyl)-2-isopropoxyisonicotinamide], the IC50 in experiment [3] (Homo sapiens, Keratinocyte) came to 0.4 µM; in experiment [4] it was 0.08 µM.

In the case of `O=C(CCC(F)(F)F)N[C@@H](c1cnn2cc([C@@H](NC(=O)c3nonc3OC3CC3)C3CCC(F)(F)CC3)nc2c1)C1CC1` [Example 380, 4-Cyclopropoxy-N—((S)-(7-((R)-cyclopropyl(4,4,4-trifluorobutanamido)methyl)imidazo[1,2-b]pyridazin-2-yl)(4,4-difluorocyclohexyl)methyl)-1,2,5-oxadiazole-3-carboxamide], the half-maximal inhibitory concentration (IC50) in experiment [3] (Homo sapiens, Keratinocyte) was 0.03 µM; in experiment [4], 0.048 µM.

With `CC(C)C(NC(=O)CCC(F)(F)F)c1cnn2cc([C@@H](NC(=O)c3ccnn3C(C)C)C3CCC(F)(F)CC3)nc2c1` (single isomer, unassigned) [Example 154, N—((S)-(4,4-Difluorocyclohexyl)(7-((R*)-2-methyl-1-(4,4,4-trifluorobutanamido)propyl)imidazo[1,2-b]pyridazin-2-yl)methyl)-1-isopropyl-1H-pyrazole-5-carboxamide], the IC50 was 0.64 µM in experiment [3] and 0.43 µM in experiment [4].

Regarding `O=C(CC12CC(F)(C1)C2)N[C@@H](c1cnn2cc([C@@H](NC(=O)c3conc3OCC(F)F)C3CCC(F)(F)CC3)nc2c1)C1CC1` [Example 295, N—((S)-(7-((R)-Cyclopropyl(2-(3-fluorobicyclo[1.1.1]pentan-1-yl)acetamido)methyl)imidazo[1,2-b]pyridazin-2-yl)(4,4-difluorocyclohexyl)methyl)-3-(2,2-difluoroethoxy)isoxazole-4-carboxamide], the IC50 in experiment [3] (Homo sapiens, Keratinocyte) was found to be 0.71 µM; in experiment [4] it was 0.15 µM.

With `O=C(CCC(F)(F)F)N[C@@H](c1cnn2cc([C@@H](NC(=O)c3ncnn3C3CC3)C3CCC(F)(F)CC3)nc2c1)C1CC1` [Example 103, 1-Cyclopropyl-N—((S)-(7-((R)-cyclopropyl(4,4,4-trifluorobutanamido)methyl)imidazo[1,2-b]pyridazin-2-yl)(4,4-difluorocyclohexyl)methyl)-1H-1,2,4-triazole-5-carboxamide], the concentration for half-maximal inhibition (IC50) in experiment [3] (Homo sapiens, Keratinocyte) came to 0.37 µM; in experiment [4] it was 0.11 µM.
